Measured values as given in PMC3277506, “Extra-Renal Elimination of Uric Acid via Intestinal Efflux Transporter BCRP/ABCG2” (PLoS ONE, 2012).
Where two headings read alike, the source gives them in different places. Blank lines part the entries; values can stand above or below the molecule they belong to.

Key:
[1] = target: T1, rBcrp (Rattus norvegicus, UniProt Q80W57); assay: [14C]uric acid uptake by rBcrp-expressing membrane vesicles; format: biochemical; design: purchased GenoMembrane Inc. (Yokohama, Japan); host or cells: Sf9 cells; settings: [14C]uric acid uptake by vesicles, inhibitor concentrations only in Fig. 2C
T1 sequence (Q80W57 1-657): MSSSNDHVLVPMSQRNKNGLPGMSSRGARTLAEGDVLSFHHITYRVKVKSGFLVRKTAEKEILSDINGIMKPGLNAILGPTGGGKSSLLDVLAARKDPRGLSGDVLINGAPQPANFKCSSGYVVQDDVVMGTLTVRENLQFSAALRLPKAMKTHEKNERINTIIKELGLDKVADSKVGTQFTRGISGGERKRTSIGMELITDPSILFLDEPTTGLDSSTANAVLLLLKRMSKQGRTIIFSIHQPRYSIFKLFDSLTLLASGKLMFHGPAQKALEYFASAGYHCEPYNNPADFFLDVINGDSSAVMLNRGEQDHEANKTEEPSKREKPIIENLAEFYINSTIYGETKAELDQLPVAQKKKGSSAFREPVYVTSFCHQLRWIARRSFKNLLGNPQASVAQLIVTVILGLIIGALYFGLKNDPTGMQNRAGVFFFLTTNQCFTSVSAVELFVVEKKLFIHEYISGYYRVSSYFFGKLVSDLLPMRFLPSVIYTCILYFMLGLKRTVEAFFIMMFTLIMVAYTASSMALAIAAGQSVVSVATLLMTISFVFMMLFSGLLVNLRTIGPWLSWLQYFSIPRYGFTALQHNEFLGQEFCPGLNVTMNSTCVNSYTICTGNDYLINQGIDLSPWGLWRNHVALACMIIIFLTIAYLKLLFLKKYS
Procedure: hBCRP/rBcrp, hMRP2/rMrp2, or hMDR1-expressing membrane vesicles prepared from Sf9 cells were purchased from GenoMembrane Inc. (Yokohama, Japan). Uptake experiments were conducted as described previously. Briefly, after a pre-incubation for 5 min at 37°C, membrane vesicles (50 µg protein/50 µL final reaction volume) were incubated for 5 min at 37°C in the presence of 4 mM ATP or AMP in assay buffer (1 M KCl, 1 M MgCl2, and 100 mM MOPS-Tris, pH 7.0) containing [^14C]uric acid (1 µCi/mL). The uptake reaction was terminated by adding 1 mL ice-cold washing buffer (1 M KCl, and 100 mM MOPS-Tris, pH 7.0) to the membrane solution, and the mixture was rapidly filtered through a nitrocellulose filter (0.45 µm pore size, Millipore, Bedford, MA). The filters were washed twice with 5 mL ice-cold washing buffer. The filters were dried and dissolved in Clearsol-I for quantitation of radioactivity.

[2] = cited from earlier work
[3] = system: Caco-2 cells; assay: Bidirectional transcellular transport of [14C]uric acid in Caco-2 cells; format: in vitro ADME, human; settings: elacridar 2 µM, Ko143 1 µM, verapamil 100 µM, MK571 10 µM
Procedure: Caco-2 cells were obtained from the American Type Culture Collection (Rockville, MD). Caco-2 cells were cultured in Dulbecco's modified Eagle's medium (D-MEM) (Invitrogen, Carlsbad, CA) supplemented with 10% (v/v) fetal bovine serum (Invitrogen), 100 units/mL benzylpenicillin, 100 µg/mL streptomycin, 1% (v/v) MEM non-essential amino acid solution (Invitrogen) at 37°C under an atmosphere of 5% CO2 in air. For bidirectional transport studies, Caco-2 cells were cultured on Transwell filter membrane inserts (BD Falcon, surface area 0.9 cm^2 and pore size 3 µm) at a density of 6.4×10^4 cells/cm^2 for 21 days before use for each experiment. […] Inhibitor was added to only apical side. Transport of [^14C]uric acid was measured in two directions, namely apical (AP)-to-basal (BL) and BL-to-AP directions. An aliquot of transport buffer was obtained from the donor side at 5 min for measurement of initial concentration, and from the receiver side at 30, 60, 90 and 120 min. Transport studies were performed at 37°C and pH 7.4.
The apparent permeability (Papp, cm/sec) of [^14C]uric acid across the cell monolayer was calculated using the following equation: [drawing 4] where Q is the amount of [^14C]uric acid transported over time t. Cd is the initial concentration in the donor side and A is the surface area of membrane.

[4] = target: T1, rBcrp; assay: Effect of elacridar on intestinal secretion of uric acid, in situ intestinal closed loop method, oxonate-treated rats; format: in vivo; settings: for Intestinal secretory clearance of uric acid, % of that in elacridar-untreated rats: 10 µM elacridar (Fig. 1A); for Intestinal secretory clearance of uric acid in the presence of elacridar: 10 µM elacridar, oxonate-treated rats
Procedure: We evaluated intestinal secretion of endogenous uric acid according to the method described previously, with some modifications. Rats were anesthetized with 50% urethane and treated with oxonate by the same method as in the in vivo animal study described above. Intestinal closed loops were made at different segments: jejunum (10 cm), ileum (10 cm), and colon (3–5 cm). Phosphate-buffered solution (PB, 0.075 M NaH2PO4 - 0.075 M Na2HPO4, pH 6.5) or inhibitor-containing PB was injected into the intestinal loop. After 60 min, the remaining luminal content in each loop was washed out and collected for quantitation. Blood was obtained from the jugular vein at 1, 20, 40 and 60 min. Plasma was obtained by centrifugation and used for quantitation.
The following equation was used to calculate intestinal secretory clearance (µL/min/cm loop) and estimated total intestinal secretory clearance (CLintestine, estimated) (mL/min): [drawing 1] [drawing 2] [drawing 3] where A is the amount of uric acid secreted into the intestinal lumen of each loop for 60 min, L is the length of the intestine, and AUC is area under the plasma concentration-time curve.

[5] = substrate: O=c1[nH]c(=O)c2[nH]c(=O)[nH]c2[nH]1; assay: [14C]uric acid uptake by rBcrp-expressing membrane vesicles; format: biochemical, rat; settings: other: ATP-dependent uptake, maximum uric acid concentration 5 mM; pH 7.0; 37.0 °C

Inhibition of rBcrp-mediated transport of uric acid [1]: not affected
Molecule: CC(C(=O)O)c1cccc(C(=O)c2ccccc2)c1 (centres unmarked) [ketoprofen]

Inhibition of rBcrp-mediated transport of uric acid [1]: not affected
Molecule: O=C(O)c1ccccc1O [salicylic acid]
Effect on SUA level ([2]; high dose): decrease
Effect on SUA level ([2]; low dose): increase

Inhibition of rBcrp-mediated transport of uric acid [1]: moderately
Molecule: CO[C@H]1/C=C/O[C@@]2(C)Oc3c(C)c(O)c4c(O)c(c(/C=N/N5CCN(C)CC5)c(O)c4c3C2=O)NC(=O)/C(C)=C\C=C\[C@H](C)[C@H](O)[C@@H](C)[C@@H](O)[C@@H](C)[C@H](OC(C)=O)[C@@H]1C [rifampicin]

Inhibition of rBcrp-mediated transport of uric acid [1]: strongly inhibited
Effect on polarized transport of uric acid across Caco-2 cell monolayer [3]: significantly reduced
Intestinal secretory clearance of uric acid, % of that in elacridar-untreated rats ([4]; colon): 30%
Intestinal secretory clearance of uric acid in the presence of elacridar ([4]; colon): 0.23±0.04 µL/min/cm loop
Ileal secretion of uric acid, % of the control ([4]; ileum, 0.1 µM elacridar (Fig. 3A)): 53%
Intestinal secretory clearance of uric acid, % of that in elacridar-untreated rats ([4]; ileum): 52%
Intestinal secretory clearance of uric acid in the presence of elacridar ([4]; ileum): 0.82±0.12 µL/min/cm loop
Intestinal secretory clearance of uric acid, % of that in elacridar-untreated rats ([4]; jejunum): 55%
Intestinal secretory clearance of uric acid in the presence of elacridar ([4]; jejunum): 0.27±0.04 µL/min/cm loop
Molecule: COc1cc2c(cc1OC)CN(CCc1ccc(NC(=O)c3cccc4c(=O)c5cccc(OC)c5[nH]c34)cc1)CC2 [elacridar]

Effect on polarized transport of uric acid across Caco-2 cell monolayer [3]: significantly reduced
Molecule: CN(C)C(=O)CCSC(SCCC(=O)O)c1cccc(/C=C/c2ccc3ccc(Cl)cc3n2)c1 (centres unmarked) [MK571, reference compound]

Continued, molecule first:

Molecule: C[C@]12CC[C@@H]3c4ccc(OS(=O)(=O)O)cc4CC[C@H]3[C@@H]1CCC2=O [estrone-3-sulfate]
Inhibition of rBcrp-mediated transport of uric acid [1]: strongly inhibited

Molecule: CCCCc1nc(Cl)c(CO)n1Cc1ccc(-c2ccccc2-c2nn[nH]n2)cc1 [losartan]
Effect on SUA level ([2]; drugs in clinical use): decrease

Molecule: COc1ccc2c3c([nH]c2c1)[C@H](CC(C)C)N1C(=O)[C@H](CCC(=O)OC(C)(C)C)NC(=O)[C@@H]1C3 [Ko143, reference compound]
Inhibition of rBcrp-mediated transport of uric acid [1]: strongly inhibited
Effect on polarized transport of uric acid across Caco-2 cell monolayer [3]: significantly reduced

B1: rBcrp (Rattus norvegicus) (protein)
chain: MSSSNDHVLVPMSQRNKNGLPGMSSRGARTLAEGDVLSFHHITYRVKVKSGFLVRKTAEKEILSDINGIMKPGLNAILGPTGGGKSSLLDVLAARKDPRGLSGDVLINGAPQPANFKCSSGYVVQDDVVMGTLTVRENLQFSAALRLPKAMKTHEKNERINTIIKELGLDKVADSKVGTQFTRGISGGERKRTSIGMELITDPSILFLDEPTTGLDSSTANAVLLLLKRMSKQGRTIIFSIHQPRYSIFKLFDSLTLLASGKLMFHGPAQKALEYFASAGYHCEPYNNPADFFLDVINGDSSAVMLNRGEQDHEANKTEEPSKREKPIIENLAEFYINSTIYGETKAELDQLPVAQKKKGSSAFREPVYVTSFCHQLRWIARRSFKNLLGNPQASVAQLIVTVILGLIIGALYFGLKNDPTGMQNRAGVFFFLTTNQCFTSVSAVELFVVEKKLFIHEYISGYYRVSSYFFGKLVSDLLPMRFLPSVIYTCILYFMLGLKRTVEAFFIMMFTLIMVAYTASSMALAIAAGQSVVSVATLLMTISFVFMMLFSGLLVNLRTIGPWLSWLQYFSIPRYGFTALQHNEFLGQEFCPGLNVTMNSTCVNSYTICTGNDYLINQGIDLSPWGLWRNHVALACMIIIFLTIAYLKLLFLKKYS
notes: purchased GenoMembrane Inc. (Yokohama, Japan); host or cells: Sf9 cells
Km [5]: 12.5 ± 0.77 mM
